Assay results: PubChem BioAssay (NCI)
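Step 1: Grow cells in 96-well plates. Step 2: Expose to compound for 48 hours at 5 concentrations. Step 3: Interpolate endpoints linearly; if unreached, use highest concentration. TGI: concentration producing complete growth inhibition.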

Tests used:
Test in all cases: NCI-60 cell line screen, 48 h
TK-10 renal = system: TK-10 renal
T-47D breast = system: T-47D breast
OVCAR-4 ovarian = system: OVCAR-4 ovarian
CAKI-1 renal = system: CAKI-1 renal
A498 renal = system: A498 renal
EKVX NSCLC = system: EKVX NSCLC
HCC-2998 colon = system: HCC-2998 colon
SN12C renal = system: SN12C renal
NCI-H226 lung = system: NCI-H226 lung
MALME-3M melanoma = system: MALME-3M melanoma
IGROV1 ovarian = system: IGROV1 ovarian
UO-31 renal = system: UO-31 renal
A549 NSCLC = system: A549 NSCLC
SNB-75 CNS = system: SNB-75 CNS
OVCAR-5 ovarian = system: OVCAR-5 ovarian
BT-549 breast = system: BT-549 breast
U251 CNS = system: U251 CNS
SK-MEL-2 melanoma = system: SK-MEL-2 melanoma
HOP-62 NSCLC = system: HOP-62 NSCLC
PC-3 prostate = system: PC-3 prostate
KM12 colon = system: KM12 colon
MDA-MB-435 = system: MDA-MB-435
NCI/ADR-RES ovarian = system: NCI/ADR-RES ovarian
ACHN renal = system: ACHN renal
OVCAR-3 ovarian = system: OVCAR-3 ovarian
786-0 renal = system: 786-0 renal
DU-145 prostate = system: DU-145 prostate
MOLT-4 leukemia = system: MOLT-4 leukemia
HL-60(TB) leukemia = system: HL-60(TB) leukemia
HCT-116 colon = system: HCT-116 colon
M14 melanoma = system: M14 melanoma
SF-268 CNS = system: SF-268 CNS
NCI-H23 lung = system: NCI-H23 lung
NCI-H522 lung = system: NCI-H522 lung
RXF 393 renal = system: RXF 393 renal
HS 578T breast = system: HS 578T breast
SNB-19 CNS = system: SNB-19 CNS
SR leukemia = system: SR leukemia
HT29 colon = system: HT29 colon
LOX IMVI melanoma = system: LOX IMVI melanoma
SF-295 CNS = system: SF-295 CNS
UACC-62 melanoma = system: UACC-62 melanoma
MDA-N = system: MDA-N
MDA-MB-231 breast = system: MDA-MB-231 breast
SW-620 colon = system: SW-620 colon
SK-OV-3 ovarian = system: SK-OV-3 ovarian
SK-MEL-28 melanoma = system: SK-MEL-28 melanoma
NCI-H460 lung = system: NCI-H460 lung
SF-539 CNS = system: SF-539 CNS
MCF7 breast = system: MCF7 breast
UACC-257 melanoma = system: UACC-257 melanoma
OVCAR-8 ovarian = system: OVCAR-8 ovarian
HCT-15 colon = system: HCT-15 colon
HOP-92 NSCLC = system: HOP-92 NSCLC
K-562 leukemia = system: K-562 leukemia
COLO 205 colon = system: COLO 205 colon
RPMI-8226 leukemia = system: RPMI-8226 leukemia
CCRF-CEM leukemia = system: CCRF-CEM leukemia
SK-MEL-5 melanoma = system: SK-MEL-5 melanoma

FC(F)(F)c1ccc2c(c1)nc1n2C(c2c(Cl)cccc2Cl)SC1 (stereo not drawn)
TGI (TK-10 renal): 47 µM
TGI (T-47D breast): 47.4 µM
TGI (OVCAR-4 ovarian): 43.4 µM
TGI (CAKI-1 renal): 35 µM
TGI (A498 renal): 32.7 µM
TGI (EKVX NSCLC): 32.3 µM
TGI (HCC-2998 colon): 40.1 µM
TGI (SN12C renal): 32.2 µM
TGI (NCI-H226 lung): 58.2 µM
TGI (MALME-3M melanoma): 42.1 µM
TGI (IGROV1 ovarian): 47.7 µM
TGI (UO-31 renal): 31.8 µM
TGI (A549 NSCLC): 38.6 µM
TGI (SNB-75 CNS): 45.1 µM
TGI (OVCAR-5 ovarian): 32.3 µM
TGI (BT-549 breast): 55.3 µM
TGI (U251 CNS): 38.3 µM
TGI (SK-MEL-2 melanoma): 40.8 µM
TGI (HOP-62 NSCLC): 31 µM
TGI (PC-3 prostate): 37.9 µM
TGI (KM12 colon): 27.2 µM
TGI (MDA-MB-435): 41.4 µM
TGI (NCI/ADR-RES ovarian): 58.9 µM
TGI (ACHN renal): 40.3 µM
TGI (OVCAR-3 ovarian): 28.8 µM
TGI (786-0 renal): 33.4 µM
TGI (DU-145 prostate): 56.1 µM
TGI (MOLT-4 leukemia): > 100 µM
TGI (HL-60(TB) leukemia): 67.5 µM
TGI (HCT-116 colon): 29.5 µM
TGI (M14 melanoma): 36.9 µM
TGI (SF-268 CNS): 47.2 µM
TGI (NCI-H23 lung): 60.1 µM
TGI (NCI-H522 lung): 51.9 µM
TGI (RXF 393 renal): 28.7 µM
TGI (HS 578T breast): 59.3 µM
TGI (SNB-19 CNS): 48.7 µM
TGI (SR leukemia): > 100 µM
TGI (HT29 colon): 31.9 µM
TGI (LOX IMVI melanoma): > 100 µM
TGI (SF-295 CNS): 33.6 µM
TGI (UACC-62 melanoma): 34.1 µM
TGI (MDA-N): 36.8 µM
TGI (MDA-MB-231 breast): 35.7 µM
TGI (SW-620 colon): 71.3 µM
TGI (SK-OV-3 ovarian): 85.9 µM
TGI (SK-MEL-28 melanoma): 43.3 µM
TGI (NCI-H460 lung): 35 µM
TGI (SF-539 CNS): 43 µM
TGI (MCF7 breast): 55.2 µM
TGI (UACC-257 melanoma): 42.9 µM
TGI (OVCAR-8 ovarian): 74.7 µM
TGI (HCT-15 colon): 50.9 µM
TGI (HOP-92 NSCLC): 37 µM

Clc1ccc2c(NCCCCN3OC3c3ccccc3)ccnc2c1 (stereo not drawn)
TGI (TK-10 renal): 22 µM
TGI (T-47D breast): 16.9 µM
TGI (OVCAR-4 ovarian): 12 µM
TGI (CAKI-1 renal): 21.8 µM
TGI (A498 renal): 12.3 µM
TGI (EKVX NSCLC): 38 µM
TGI (HCC-2998 colon): 11.1 µM
TGI (SN12C renal): 24.7 µM
TGI (K-562 leukemia): 4.92 µM
TGI (NCI-H226 lung): 37.6 µM
TGI (MALME-3M melanoma): 16 µM
TGI (IGROV1 ovarian): 27.7 µM
TGI (UO-31 renal): 28.6 µM
TGI (A549 NSCLC): 19.2 µM
TGI (SNB-75 CNS): 11.4 µM
TGI (COLO 205 colon): 7.12 µM
TGI (OVCAR-5 ovarian): 29.8 µM
TGI (BT-549 breast): 27 µM
TGI (U251 CNS): 9.13 µM
TGI (SK-MEL-2 melanoma): 11.1 µM
TGI (HOP-62 NSCLC): 10.9 µM
TGI (PC-3 prostate): 26.7 µM
TGI (KM12 colon): 22.8 µM
TGI (MDA-MB-435): 14.5 µM
TGI (NCI/ADR-RES ovarian): 40.2 µM
TGI (ACHN renal): 22.2 µM
TGI (OVCAR-3 ovarian): 9.33 µM
TGI (786-0 renal): 6.67 µM
TGI (DU-145 prostate): 24.9 µM
TGI (MOLT-4 leukemia): 9.3 µM
TGI (HL-60(TB) leukemia): 2.63 µM
TGI (HCT-116 colon): 4.36 µM
TGI (M14 melanoma): 6.22 µM
TGI (SF-268 CNS): 27.1 µM
TGI (NCI-H23 lung): 35.2 µM
TGI (NCI-H522 lung): 16.4 µM
TGI (RPMI-8226 leukemia): 5.98 µM
TGI (RXF 393 renal): 12 µM
TGI (HS 578T breast): 35.9 µM
TGI (SNB-19 CNS): 18.9 µM
TGI (SR leukemia): > 100 µM
TGI (HT29 colon): 10.9 µM
TGI (LOX IMVI melanoma): 5.67 µM
TGI (CCRF-CEM leukemia): 8.09 µM
TGI (SF-295 CNS): 26.1 µM
TGI (UACC-62 melanoma): 27.1 µM
TGI (SK-MEL-5 melanoma): 11.4 µM
TGI (MDA-N): 16.7 µM
TGI (MDA-MB-231 breast): 5.92 µM
TGI (SW-620 colon): 18.5 µM
TGI (SK-OV-3 ovarian): 34.5 µM
TGI (SK-MEL-28 melanoma): 7.42 µM
TGI (NCI-H460 lung): 21.9 µM
TGI (SF-539 CNS): 3.63 µM
TGI (MCF7 breast): 17.5 µM
TGI (UACC-257 melanoma): 34.5 µM
TGI (OVCAR-8 ovarian): 13.1 µM
TGI (HCT-15 colon): 23.5 µM
TGI (HOP-92 NSCLC): 25.8 µM
